Consider 22 molecules from ChEMBL document CHEMBL1147730, “3D-QSAR studies on cannabinoid CB1 receptor agonists: G-protein activation as biological data” (J Med Chem, 2006).

The target in assay [1] is Cannabinoid receptor 1 (Rattus norvegicus) (UniProt P20272). As to the kind of experiment: (§1) […] [35S]GTP-gamma-S from rat cerebellar CB1 receptor. Type of assay: functional. The note with it: Wistar.
For a further assay, the target named is Cannabinoid receptor 1 (Rattus norvegicus, UniProt P20272). The assay is described as §1. In kind it is functional, Wistar.

SMILES strings stand for the structures.

What is called Emax is the size of the effect at its maximum, as opposed to the concentration needed. For orientation: EC50 means the midpoint of the concentration-response curve. Read a low EC50 as greater potency.

Sequence of Cannabinoid receptor 1 (Rattus norvegicus) (P20272 whole entry): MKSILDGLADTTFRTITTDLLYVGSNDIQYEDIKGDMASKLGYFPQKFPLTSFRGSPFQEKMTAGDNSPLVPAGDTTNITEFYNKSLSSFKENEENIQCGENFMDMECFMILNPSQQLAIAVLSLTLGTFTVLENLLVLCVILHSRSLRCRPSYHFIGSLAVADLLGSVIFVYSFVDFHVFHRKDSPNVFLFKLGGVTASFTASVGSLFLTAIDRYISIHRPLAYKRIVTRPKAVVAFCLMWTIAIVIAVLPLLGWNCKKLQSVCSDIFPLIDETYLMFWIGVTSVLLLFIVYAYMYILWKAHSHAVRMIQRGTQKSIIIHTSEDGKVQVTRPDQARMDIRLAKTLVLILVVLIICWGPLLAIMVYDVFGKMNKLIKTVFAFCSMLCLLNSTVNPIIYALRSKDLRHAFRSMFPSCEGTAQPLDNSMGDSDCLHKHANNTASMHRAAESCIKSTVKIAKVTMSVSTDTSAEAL
Sequence of Cannabinoid receptor 1 (P20272 whole entry): as above

For `CCCCCc1cc(O)c2c(c1)OC(C)(C)[C@@H]1CC=C(C)C[C@@H]21` [DELTA-8-TETRAHYDROCANNABINOL], in assay [1], the Emax is 184%.

Turning to `CCCCCCC(C)(C)/C=C\C/C=C\C/C=C\C/C=C\CCCC(=O)OC(CO)CO`, the EC50 at Cannabinoid receptor 1 was 50100 nM. This molecule also had an Emax in assay [1] of 332%.

`CCCCC/C=C\C/C=C\C/C=C\C/C=C\CCCCNC(=O)CCO`: the EC50 at Cannabinoid receptor 1 was 7940 nM. For the same molecule, in assay [1], the Emax came to 286%.

`CCCCCCC(C)(C)/C=C\C/C=C\C/C=C\C/C=C\CCCCOC(CO)CO` showed an EC50 at Cannabinoid receptor 1 of 39800 nM. The same molecule gave an Emax in assay [1] of 352%.

With `CC1=CC[C@@H]2[C@@H](C1)c1c(O)cc(C(C)(C)CCCCC#N)cc1OC2(C)C`, the EC50 at Cannabinoid receptor 1 is 10 nM. In assay [1], the Emax was 369%.

Take `CC1=CC[C@@H]2[C@@H](C1)c1c(O)cc(C(C)(C)CCCCBr)cc1OC2(C)C`: at Cannabinoid receptor 1, the EC50 is 10 nM. Further, the Emax in assay [1] is 400%.

`CCCCCCC(C)(C)c1ccc([C@@H]2C[C@H](O)CC[C@H]2CCCO)c(O)c1` returned an Emax in assay [1] of 443%.

In turn, `CCCCC/C=C\C/C=C\C/C=C\C/C=C\CCCCNC(=O)CCC` showed an EC50 at Cannabinoid receptor 1 of 3160 nM. The molecule further had an Emax in assay [1] of 199%.

As to `CCCCCc1cc(O)c2c(c1)OC(C)(C)[C@@H]1CCC(C)=C[C@@H]21`, the Emax in assay [1] amounted to 159%.

Take `CCCCC/C=C\C/C=C\C/C=C\C/C=C\CCCCNC(=O)CC`: the EC50 at Cannabinoid receptor 1 is 3160 nM. The same molecule had an Emax in assay [1] of 213%.

In the case of `CCCCC/C=C\C/C=C\C/C=C\C/C=C\CCCC(=O)C(F)(F)F` [ARACHIDONYL TRIFLUOROMETHYLKETONE], the EC50 on Cannabinoid receptor 1 is 25100 nM. The same molecule displayed an Emax in assay [1] of 161%.

On to `CCCCCCC(C)(C)c1cc(O)c2c(c1)OC(C)(C)[C@@H]1CC=C(CO)C[C@@H]21`, for which the EC50 on Cannabinoid receptor 1 was 5.01 nM. Also, in assay [1], the Emax worked out at 396%.

As to `CCCCC/C=C\C/C=C\C/C=C\C/C=C\CCCCOC(=O)[C@H](O)CO`, in assay [1], the Emax is 255%.

On Cannabinoid receptor 1, `CCCCCc1cc(O)c2c(c1)OC(C)(C)c1ccc(C)cc1-2` [CANNABINOL] had an EC50 of 316 nM. This molecule showed an Emax in assay [1] of 131%.

Consider `CCCCC/C=C\C/C=C\C/C=C\C/C=C\CCCNC(=O)CCO`, for which the half-maximal effective concentration (EC50) at Cannabinoid receptor 1 was 15800 nM. Moreover, the maximal effect (Emax) in assay [1] is 284%.

As for `CCCCCCC(C)(C)/C=C\C/C=C\C/C=C\C/C=C\CCC(=O)OC(CO)CO`, it took 50100 nM to reach a half-maximal effect at Cannabinoid receptor 1 (EC50). Besides, in assay [1], the Emax was 382%.

Regarding `CCCCC/C=C\C/C=C\C/C=C\C/C=C\CCCNC(=O)CC`, at Cannabinoid receptor 1, a half-maximal effect (EC50) was put at 2000 nM. The molecule further displayed an Emax in assay [1] of 260%.

Molecule `CCCCC/C=C\C/C=C\C/C=C\C/C=C\CCCNC(=O)CCC` had an EC50 at Cannabinoid receptor 1 of 1260 nM. For the same molecule, the Emax in assay [1] came to 210%.

With `CCCCC/C=C\C/C=C\C/C=C\C/C=C\CCCC(=O)NC1CC1`, the response on Cannabinoid receptor 1 was half-maximal at 398 nM (EC50). Also, the Emax in assay [1] was 351%.

Turning to `CCCC(C)(C)c1ccc2c(c1)OC(C)(C)[C@@H]1CC=C(C)C[C@@H]21`, the EC50 at Cannabinoid receptor 1 was 2000 nM. The molecule also displayed a maximal response (Emax) in assay [1] of 158%.

Molecule `CCCCCCC(C)(C)/C=C\C/C=C\C/C=C\C/C=C\CCCOC(CO)CO` had an EC50 at Cannabinoid receptor 1 of 50100 nM. Further, the Emax in assay [1] stood at 474%.

`CCCCC/C=C\C/C=C\C/C=C\C/C=C\CCCC(=O)NCCCl` had an EC50 on Cannabinoid receptor 1 of 316 nM. For the same molecule, the Emax in assay [1] was 326%.
